Test results from patent US11390625B2, “Aryl-phosphorus-oxygen compound as EGFR kinase inhibitor” (Chia Tai Tianqing Pharmaceutical Group Co., Ltd., priority 2017, dated 2022).

How the values were obtained:
[1] = test system: Ba/F3 (Δ19del/T790M/C797S) xenograft; experiment: In vivo efficacy (1): Ba/F3 (Δ19del/T790M/C797S) subcutaneous xenograft (CDX) in BALB/c nude mice;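 further: female nude mice, dosing begun at mean tumor size near 80–120 mm^3, tumors measured by caliper twice weekly, volume in mm^3 computed as 0.5×long×short diameter squared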
Experimental: BALB/c nude mice, female, 6-8 weeks old, 18-20 g of body weight, were housed in SPF-grade environment, and each cage was individually ventilated (5 mice per cage). […] A total of 48 mice purchased from Beijing Weitonglihua company were used for the study. Each mouse was implanted with cells at the right flank, for tumor growth. The experiment was started when the average tumor volume reached approximately 80-120 mm^3. […] Tumor volume was measured twice a week with a two-dimensional caliper, measured in mm^3 and calculated by the following formula: V=0.5a×b^2, wherein a and b are the long and short diameters of the tumor, respectively. Antitumor efficacy was determined by dividing the average increase of the tumor volume of the animals treated with the compound by the average increase of the tumor volume of the untreated animals.

[2] = test system: Ba/F3 (EGFR Δ19del/T790M/C797S) cells; experiment: Anti-proliferation experiment on cells (2), Ba/F3 (EGFR Δ19del/T790M/C797S); type: cell-based; conditions: for IC50: Ba/F3 EGFR, 72 h, Ba/F3 cells, 3 days, read-out: anti-proliferation effect on cells Ba/F3(Δ19del/T790M/C797S) IC50
Experimental: The compounds ware transferred to a 384-well plate, with 125 nL of compound per well. […] After 3 days, 25 μL of detection reagent was added. The plate was incubated at room temperature for 10 minutes and then read with Envision.

[3] = test system: pEGFR Ba/F3 (EGFR Δ19del/T790M/C797S) cells; experiment: Cell phosphorylation inhibition experiment, pEGFR Ba/F3 (EGFR Δ19del/T790M/C797S); type: cell-based; conditions: for IC50: Ba/F3 EGFR, Ba/F3 cells, EGF stimulated, read-out: Effect on cellular EGFR phosphorylation Ba/F3(Δ19del/T790M/C797S) IC50
Experimental: The test compounds and reference compounds were diluted with 100% DMSO to 10 mM or 1 mM, and then a gradient dilution was performed by using Echo, 150 nL per well, with a three-fold concentration gradient and a ten-point dose response curve. The final concentration of the compounds was 100 μM or 10 μM. The suspension cells was centrifuged at 1000 rp for 5 minutes, suspend in Hanks' balanced salt solution, and added to a 384-well plate containing the compounds at 10 L/120K/well (the cell density of 1.2×10^7), followed by centrifugation at 1200 rpm for 30 s and incubation at 37° C. for 30 min. 5 μL of EGF (which has been diluted with 0.1% BSA Hanks' balanced salt solution) was added to each well, in which the final concentration of EGF was 1 μM. The plate was centrifuged at 1200 rpm for 30 s and incubated at 37° C. for 20 min. 5 μL of 4× lysis buffer containing blocking solution was added to each well, and then the plate was centrifuged at 1200 rpm for 30 s, and incubated at 37° C. for 30 min.

[4] = molecular target: EGFR (Δ19del/T790M/C797S) (Homo sapiens, UniProt P00533, C797S/T790M, form not given); experiment: Enzyme activity experiment (1): EGFR (Δ19del/T790M/C797S) enzyme inhibition; type: biochemical; conditions: read-out: EGFR (Δ19del/T790M/C797S) IC50
Chain of EGFR (Δ19del/T790M/C797S) (P00533 25-1210 T790M/C797S limits assumed, form open): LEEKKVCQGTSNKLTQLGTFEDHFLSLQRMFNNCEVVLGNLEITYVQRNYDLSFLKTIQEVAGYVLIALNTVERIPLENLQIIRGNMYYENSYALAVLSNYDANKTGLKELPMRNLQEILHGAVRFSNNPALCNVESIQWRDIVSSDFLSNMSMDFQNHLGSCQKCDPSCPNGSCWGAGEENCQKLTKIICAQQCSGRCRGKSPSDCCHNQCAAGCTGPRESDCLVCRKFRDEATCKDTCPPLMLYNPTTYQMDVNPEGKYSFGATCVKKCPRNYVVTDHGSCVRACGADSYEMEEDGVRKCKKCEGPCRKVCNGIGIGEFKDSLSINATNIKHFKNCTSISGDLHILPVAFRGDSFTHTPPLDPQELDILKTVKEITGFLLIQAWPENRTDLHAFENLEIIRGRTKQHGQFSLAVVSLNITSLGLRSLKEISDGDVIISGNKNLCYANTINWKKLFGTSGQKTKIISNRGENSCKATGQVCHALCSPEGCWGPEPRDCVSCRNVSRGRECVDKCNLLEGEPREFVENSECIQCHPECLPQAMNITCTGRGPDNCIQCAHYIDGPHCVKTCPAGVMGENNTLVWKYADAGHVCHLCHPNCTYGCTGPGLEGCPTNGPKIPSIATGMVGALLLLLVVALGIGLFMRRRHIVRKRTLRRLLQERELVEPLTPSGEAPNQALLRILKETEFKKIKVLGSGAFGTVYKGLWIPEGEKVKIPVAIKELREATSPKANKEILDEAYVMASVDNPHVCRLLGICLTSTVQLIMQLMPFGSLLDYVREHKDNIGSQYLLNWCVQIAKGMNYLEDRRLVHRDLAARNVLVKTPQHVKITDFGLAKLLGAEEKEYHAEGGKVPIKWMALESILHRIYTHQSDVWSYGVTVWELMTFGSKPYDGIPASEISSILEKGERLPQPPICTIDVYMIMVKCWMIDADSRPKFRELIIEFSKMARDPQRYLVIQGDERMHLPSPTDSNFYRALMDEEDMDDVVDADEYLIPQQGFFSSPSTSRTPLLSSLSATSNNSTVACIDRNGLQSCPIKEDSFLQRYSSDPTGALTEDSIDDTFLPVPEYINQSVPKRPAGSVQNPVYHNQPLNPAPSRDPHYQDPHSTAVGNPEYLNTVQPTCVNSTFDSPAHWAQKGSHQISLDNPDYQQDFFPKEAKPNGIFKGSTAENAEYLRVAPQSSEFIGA
Experimental: 1) 10 μL of the compounds to be tested and reference compounds diluted to 10 mM were taken into an Echo LDV plate, which were diluted according to the compound profile with Echo.
1) 1×enzyme reaction buffer was prepared: 1× enzyme buffer, 5 mM MgCl2, 1 mM DTT (dithiothreitol), water.
2) A mixed solution of 10 nM enzyme (final concentration of 5 nM) and 2 μM substrate (final concentration of 1 μM) and a solution containing the substrate alone were prepared with the diluted enzyme reaction buffer.
3) 5 μL of the substrate was added into A1-H1, J24-P24 (the number of the well position), and 5 μL of the mixture of the enzyme and substrate was added into the remaining wells.
4) Centrifugation was performed at 1000 rpm at 23° C. for 30 s.
5) Incubation was performed at 23° C. for 15 min.
7) Centrifugation was performed at 1000 rpm at 23° C. for 30 s.
8) Incubation was performed at 23° C. for 60 min.
9) 10 μL of 250 nM TK Antibody-Crypate (a final concentration of 125 nM) and 1×D2 (a final concentration ½ time) prepared with Detection buffer were added.
10) Centrifugation was performed at 1000 rpm at 23° C. for 30 s.
11) Incubation was performed at 23° C. for 60 min.
12) The data was read with Envision, and the ratio was calculated to obtain the IC50 of the compound for inhibiting the enzyme activity.

Row | Structure (SMILES) | IC50 [2] [nM] | further results
1 | COc1cc(N2CCC(N3CCN(C)CC3)CC2)ccc1Nc1ncc(Cl)c(Nc2ccccc2P(C)(C)=O)n1 [Birgatinib, reference compound] | – | TGI (the tumor inhibition value) ([1]; 15 mg/kg oral daily, 13 consecutive days): 8.6%; Tumor volume Day 0 ([1]; 15 mg/kg/day oral, Day 0): 84 mm^3; Tumor volume Day 2 ([1]; 15 mg/kg/day oral, Day 2): 124 mm^3; Tumor volume Day 5 ([1]; 15 mg/kg/day oral, Day 5): 292 mm^3; Tumor volume Day 8 ([1]; 15 mg/kg/day oral, Day 8): 477 mm^3; Tumor volume Day 10 ([1]; 15 mg/kg/day oral, Day 10): 646 mm^3; Tumor volume Day 12 ([1]; 15 mg/kg/day oral, Day 12): 880 mm^3; Tumor volume Day 13 ([1]; 15 mg/kg/day oral, Day 13): 965 mm^3
2 | COc1cc(N2CCC3(CCN(C)CC3)CC2)c(Cl)cc1Nc1ncc(Cl)c(Nc2ccc3sccc3c2P(C)(C)=O)n1 [Compound 1] | – | IC50 [4]: 2.64 nM
3 | COc1cc(N2CCC(N3CCN(C)CC3)CC2)ccc1Nc1ncc(Cl)c(Nc2ccc3cccnc3c2P(C)(C)=O)n1 [Compound 7] | – | IC50 [3]: 533 nM
4 | COc1cc(N2CCC3(CC2)CN(C)C3)c(C)cc1Nc1ncc(Cl)c(Nc2ccc3nccnc3c2P(C)(C)=O)n1 [Compound 8] | 275 | IC50 [3]: 133 nM; IC50 [4]: 0.792 nM
5 | COc1cc(N2CCC3(CC2)CN(C)C3)c(C)cc1Nc1ncc(Cl)c(Nc2ccc3c(c2P(C)(C)=O)CCC3)n1 [Compound 16] | 211 | IC50 [4]: 0.491 nM
6 | COc1cc(N2CCC3(CC2)CN(C)C3)c(C)cc1Nc1ncc(OC(=O)N(C)C)c(Nc2ccc3ccccc3c2P(C)(C)=O)n1 [Compound 17] | 4750 | IC50 [4]: 856 nM
7 | COc1ccc(OCCNCc2cnccn2)cc1Nc1ncc(Cl)c(Nc2ccc3ccccc3c2P(C)(C)=O)n1 [Compound 18] | 1650 | IC50 [4]: 25.3 nM
8 | COc1cc(N2CCC3(CC2)CN(CCN(C)C)C3)c(C)cc1Nc1ncc(Cl)c(Nc2ccc3ccccc3c2P(C)(C)=O)n1 [Compound 20] | 214 | IC50 [4]: < 0.0508 nM
9 | COc1cc(N2CCC3(CC2)CN(C)C3)c(C)cc1Nc1ncc(C(C)=O)c(Nc2ccc3ccccc3c2P(C)(C)=O)n1 [Compound 24] | 4080 | –
10 | COc1cc(N2CCC3(CC2)CN(C)C3)c(C)cc1Nc1ncc(C2CC2)c(Nc2ccc3ccccc3c2P(C)(C)=O)n1 [Compound 25] | 642 | IC50 [4]: 1.79 nM
11 | COc1ccc(OCCNS(C)(=O)=O)cc1Nc1ncc(Cl)c(Nc2ccc3ccccc3c2P(C)(C)=O)n1 [Compound 29] | 1590 | IC50 [4]: 67.6 nM
12 | COc1cc(N2CCC3(CC2)CN(CCO)C3)c(C)cc1Nc1ncc(Cl)c(Nc2ccc3ccccc3c2P(C)(C)=O)n1 [Compound 30] | 290 | –
13 | COc1cc(N2CCC3(CC2)CN(C(C)C)C3)c(C)cc1Nc1ncc(Cl)c(Nc2ccc3sccc3c2P(C)(C)=O)n1 [Compound 31] | 242 | –
14 | COc1cc(N2CCC(N3CCN(C)CC3)CC2)ccc1Nc1ncc(Cl)c(Nc2ccc3cccnc3c2P(C)(C)=O)n1 [Compound 43] | 496 | –
15 | COc1cc(N2CCC(N(C)C)CC2)c(C)cc1Nc1ncc(Br)c(Nc2ccc3nccnc3c2P(C)(C)=O)n1 [Compound 44] | – | IC50 [3]: 9 nM
16 | COc1cc(N2CCC(N3CCN(C)CC3)CC2)c(C)cc1Nc1ncc(Br)c(Nc2ccc3scnc3c2P(C)(C)=O)n1 [Example 51] | 36 | –
17 | COc1cc(N2CCC(N3CCN(C)CC3)CC2)c(Cl)cc1Nc1ncc(Br)c(Nc2ccc3nccnc3c2P(C)(C)=O)n1 [Example 54] | 39 | –
18 | COc1cc(N2CCC3(CCN(C)CC3)CC2)c(C)cc1Nc1ncc(Br)c(Nc2ccc3nccnc3c2P(C)(C)=O)n1 [Example 57] | 26.8 | –

The next lines start with results.

Row | IC50 [2] [nM] | Structure (SMILES) | further results
19 | > 5000 | COc1cc(N2CCC(N3CCN(C)CC3)CC2)ccc1Nc1ncc(Cl)c(Nc2ccc3[nH]cnc3c2P(C)(C)=O)n1 [Comparative Example 1, reference compound] | inhibitory effect on Ba/F3 cells with three mutations (EGFR Δ19del/T790M/C797S) ([2]; in words): almost no inhibitory effect; IC50 [3]: 1010 nM; inhibitory effect on the phosphorylation of Ba/F3 (Δ19del/T790M/C797S) cells ([3]; in words): almost no inhibitory effect
20 | 6030 | COc1cc(N2CCC3(CCN(C)CC3)CC2)c(Cl)cc1Nc1ncc(Cl)c(Nc2ccc3cccnc3c2P(C)(C)=O)n1 [Compound 10] | –
21 | 180 | COc1cc(N2CCC(N3CCN(C)CC3)CC2)c(Cl)cc1Nc1ncc(Cl)c(Nc2ccc3ccccc3c2P(C)(C)=O)n1 [Compound 11] | –
22 | 351 | COc1cc(N2CCC3(CCN(C)CC3)CC2)c(Cl)cc1Nc1ncc(Cl)c(Nc2ccc3c(c2P(C)(C)=O)C(=O)CC3)n1 [Compound 14] | –
23 | 583 | COc1cc(N2CCC3(CC2)CN(C)C3)c(C)cc1Nc1ncc(Cl)c(Nc2ccc3c(ccn3C)c2P(C)(C)=O)n1 [Compound 15] | –
24 | 1220 | COc1ccc(OCCNCc2cccnc2)cc1Nc1ncc(Cl)c(Nc2ccc3ccccc3c2P(C)(C)=O)n1 [Compound 19] | IC50 [4]: 12.9 nM
25 | 249 | COc1cc(N2CCC3(CC2)CN(C)C3)c(C)cc1Nc1nc(Nc2ccc3ccccc3c2P(C)(C)=O)c2cc[nH]c2n1 [Compound 22] | –
26 | 103 | COc1cc(N2CCC3(CC2)CN(C)C3)c(C)cc1Nc1ncc(Br)c(Nc2ccc3ccccc3c2P(C)(C)=O)n1 [Compound 23] | IC50 [3]: 34 nM; IC50 [4]: 0.0517 nM
27 | 764 | COc1cc(N2CCC3(CC2)CN(C)C3)c(C)cc1Nc1ncc(C#N)c(Nc2ccc3ccccc3c2P(C)(C)=O)n1 [Compound 26] | IC50 [4]: 0.679 nM
28 | 2710 | COc1cc(N2CCC3(CC2)CN(C)C3)c(C)cc1Nc1ncc(-c2nnc(C)o2)c(Nc2ccc3ccccc3c2P(C)(C)=O)n1 [Compound 27] | –
29 | 79 | CCc1cc(Nc2ncc(Br)c(Nc3ccc4ccccc4c3P(C)(C)=O)n2)c(OC)cc1N1CCC2(CC1)CN(C)C2 [Compound 32] | IC50 [3]: 57 nM
30 | 162 | COc1cc(N2CCC3(CC2)CN(C(C)C)C3)c(C)cc1Nc1ncc(Br)c(Nc2ccc3ccccc3c2P(C)(C)=O)n1 [Compound 33] | –
31 | 533 | COc1cc(N2CCC(N3CCN(C)CC3)CC2)ccc1Nc1ncc(Cl)c(Nc2ccc3c(c2P(C)(C)=O)CCC3)n1 [Compound 35] | –
32 | 371 | COc1cc(N2CCC(N3CCN(C)CC3)CC2)ccc1Nc1ncc(Br)c(Nc2ccc3c(c2P(C)(C)=O)CCC3)n1 [Compound 38] | –
33 | 187 | COc1cc(N2CCC3(CC2)CN(CCN(C)C)C3)c(C)cc1Nc1ncc(Cl)c(Nc2ccc3nccnc3c2P(C)(C)=O)n1 [Compound 39] | IC50 [3]: 195 nM
34 | 442 | COc1cc(N2CCC(N3CCN(C)CC3)CC2)ccc1Nc1ncc(Cl)c(Nc2ccc3scnc3c2P(C)(C)=O)n1 [Compound 42] | –
35 | 87 | COc1cc(N2CCN(C)CC2)c(C)cc1Nc1ncc(Br)c(Nc2ccc3nccnc3c2P(C)(C)=O)n1 [Example 45] | IC50 [3]: 27 nM
36 | 152 | COc1cc(N2CCC(N3CCN(C)CC3)CC2)c(C)cc1Nc1ncc(C)c(Nc2ccc3nccnc3c2P(C)(C)=O)n1 [Example 48] | –
37 | 18.6 | CCc1cc(Nc2ncc(Br)c(Nc3ccc4nccnc4c3P(C)(C)=O)n2)c(OC)cc1N1CCC2(CCN(C)CC2)CC1 [Example 58] | –
